# Data from ChEMBL document CHEMBL5338744, “Development and Characterization of Benzoselenazole Derivatives as Potent and Selective c-MYC Transcription Inhibitors” (J Med Chem, 2023).
# Activity calls are given as the source filed them. No cut-off for these calls is given here.
# Columns and labels:
# HCT-116 = experiment: Cytotoxicity against human HCT-116 cells assessed as reduction in cell viability incubated for 48 hrs by MTT assay; format: functional, cell-based; settings: HCT-116, 48 h
# HepG2 [1] = experiment: Cytotoxicity against human HepG2 cells assessed as reduction in cell viability incubated for 48 hrs by MTT assay; format: functional, cell-based; settings: HepG2, 48 h
# [2] = Cytotoxicity against human NCM460 cells assessed as reduction in cell viability incubated for 48 hrs by MTT assay; format: toxicity, cell-based
# [3] = Toxicity in BALB/C-nu/nu mouse xenografted with human HepG2 cells assessed as abnormality in liver at 15 mg/kg, ip administered every other day for 28 days by hematoxylin and eosin staining method; format: organism-based; settings: in vivo, 672 h, time 28 day
# [4] = Toxicity in BALB/C-nu/nu mouse xenografted with human HepG2 cells assessed as abnormality in lung at 15 mg/kg, ip administered every other day for 28 days by hematoxylin and eosin staining method; format: organism-based; settings: in vivo, 672 h, time 28 day
# [5] = Toxicity in nude mouse assessed as changes in body weight at 30 mg/kg administered for 5 days; format: organism-based; settings: in vivo, 120 h, time 5 day
# HepG2 [6] = experiment: Inhibition of colony formation in human HepG2 cells at 1 uM measured after 14 days by crystal violet staining based assay; format: functional, cell-based; settings: time 14.0 day
# HepG2 [7] = experiment: Inhibition of c-MYC transcription in human HepG2 cells up to 10 uM incubated for 48 hrs by RT-qPCR analysis; format: functional, cell-based
# HepG2 [8] = experiment: Downregulation of c-MYC expression level in human HepG2 cells incubated for 48 hrs by Western blotting analysis; format: functional, cell-based; settings: dose 0-10 µM
# CA46 = experiment: Inhibition of c-MYC G-quadruplex exon 1 transcription in human CA46 cells incubated for 48 hrs by RT-qPCR analysis; format: functional, cell-based; settings: dose 1.25-2.5 µM
# [9] = Toxicity in BALB/C-nu/nu mouse xenografted with human HepG2 cells assessed as abnormality in kidney at 15 mg/kg, ip administered every other day for 28 days by hematoxylin and eosin staining method; format: organism-based; settings: in vivo, 672 h, time 28 day
# HepG2 [10] = experiment: Antitumor activity against human HepG2 cells xenografted in BALB/C-nu/nu mouse assessed as tumor growth inhibition at 15 mg/kg, ip administered every other day for 28 days; format: functional; settings: HepG2, 672 h, time 28 day, read-out: TGI
# Quadruplex DNA [11] = experiment: Binding affinity to G-quadruplex DNA pu22 mutant (unknown origin) by fluorescence spectroscopic analysis; format: nucleic-acid assay
# HepG2 [12] = experiment: Antitumor activity against human HepG2 cells xenografted in BALB/C-nu/nu mouse assessed as reduction in tumor weight at 15 mg/kg, ip administered every other day for 28 days; format: functional, organism-based; settings: time 28.0 day
# Quadruplex DNA [13] = experiment: Binding affinity to G-quadruplex DNA htg22 (unknown origin) by fluorescence spectroscopic analysis; format: nucleic-acid assay
# [14] = Cytotoxicity against human L02 cells assessed as reduction in cell viability incubated for 48 hrs by MTT assay; format: toxicity, cell-based
# [15] = Toxicity in BALB/C-nu/nu mouse xenografted with human HepG2 cells assessed as sign of pain at 15 mg/kg, ip administered every other day for 28 days; format: organism-based; settings: in vivo, 672 h, time 28 day
# [16] = Toxicity in BALB/C-nu/nu mouse xenografted with human HepG2 cells assessed as abnormality in spleen at 15 mg/kg, ip administered every other day for 28 days by hematoxylin and eosin staining method; format: organism-based; settings: in vivo, 672 h, time 28 day
# [17] = Toxicity in BALB/C-nu/nu mouse xenografted with human HepG2 cells assessed as sign of distress at 15 mg/kg, ip administered every other day for 28 days; format: organism-based; settings: in vivo, 672 h, time 28 day
# HepG2 [18] = experiment: Disruption of NM23-H2/c-MYC G quadruplex DNA interaction in human HepG2 cells at 1.25 uM incubated for 1 hr by ChIP assay; format: cell-based
# HepG2 [19] = experiment: Effect on cell cycle distribution in human HepG2 cells assessed as accumulation of cells in S phase at 1.25 to 5 uM incubated for 48 hrs by PI staining based flow cytometric analysis; format: functional; settings: dose 1.25-5 µM
# Quadruplex DNA [20] = experiment: Binding affinity to G-quadruplex DNA pu22 (unknown origin) by fluorescence spectroscopic analysis; format: nucleic-acid assay
# [21] = Toxicity in nude mouse assessed as mortality at 30 mg/kg administered for 5 days; format: organism-based; settings: in vivo, 120 h, time 5 day
# Quadruplex DNA [22] = experiment: Binding affinity to G-quadruplex DNA HRAS (unknown origin) by fluorescence spectroscopic analysis; format: nucleic-acid assay
# Quadruplex DNA [23] = experiment: Binding affinity to G-quadruplex DNA ds26 (unknown origin) by fluorescence spectroscopic analysis; format: nucleic-acid assay
# Quadruplex DNA [24] = experiment: Binding affinity to G-quadruplex DNA c-kit1 (unknown origin) by fluorescence spectroscopic analysis; format: nucleic-acid assay
# [25] = Toxicity in BALB/C-nu/nu mouse xenografted with human HepG2 cells assessed as changes in body weight at 15 mg/kg, ip administered every other day for 28 days; format: organism-based; settings: in vivo, 672 h, time 28 day
# Quadruplex DNA [26] = experiment: Binding affinity to G-quadruplex DNA pu22 (unknown origin) assessed as melting temperature at 10 uM by circular dichroism analysis
# HepG2 [27] = experiment: Induction of apoptosis in human hepG2 cells assessed as early apoptotic cells at 1.25 to 5 uM incubated for 48 hrs by Annexin V-FITC and propidium iodide staining based flow cytometric analysis; format: functional; settings: dose 1.25-5 µM
# HepG2 [28] = experiment: Antitumor activity against human HepG2 cells xenografted in BALB/C-nu/nu mouse assessed as decrease in c-MYC expression in tumor tissue at 15 mg/kg, ip administered every other day for 28 days by immunohistochemical analysis; format: functional, organism-based; settings: time 28.0 day
# [29] = Toxicity in BALB/C-nu/nu mouse xenografted with human HepG2 cells assessed as sign of discomfort at 15 mg/kg, ip administered every other day for 28 days; format: organism-based; settings: in vivo, 672 h, time 28 day
# HepG2 [30] = experiment: Antitumor activity against human HepG2 cells xenografted in BALB/C-nu/nu mouse assessed as reduction in tumor volume at 15 mg/kg, ip administered every other day for 28 days; format: functional, organism-based; settings: time 28.0 day
# Quadruplex DNA [31] = experiment: Binding affinity to G-quadruplex DNA VEGF (unknown origin) by fluorescence spectroscopic analysis; format: nucleic-acid assay
# [32] = Disruption of NM23-H2/c-MYC G quadruplex DNA (unknown origin) interaction incubated for 1 hr by ELISA
# [33] = Toxicity in BALB/C-nu/nu mouse xenografted with human HepG2 cells assessed as abnormality in heart at 15 mg/kg, ip administered every other day for 28 days by hematoxylin and eosin staining method; format: organism-based; settings: in vivo, 672 h, time 28 day
smiles,measurement,setting,value
C[n+]1c(/C=C/c2ccc3c(c2)c2ccccc2n3Cc2ccccc2)oc2ccccc21,IC50,HCT-116,32.3 µM
same,IC50,HepG2 [1],96.2 µM
same,IC50 at 48 h,[2],> 100 µM
CCn1c2ccccc2c2cc(/C=C/c3sc4ccc5ccccc5c4[n+]3C)ccc21,IC50,HCT-116,2.5 µM
same,IC50,HepG2 [1],8.3 µM
same,IC50 at 48 h,[2],26.1 µM
C(=C\c1nc2ccccc2s1)/c1ccc2c(c1)c1ccccc1n2Cc1ccccc1,IC50,HCT-116,> 100 µM
same,IC50,HepG2 [1],53.2 µM
same,IC50 at 48 h,[2],> 100 µM
C(=C\c1nc2ccccc2o1)/c1ccc2c(c1)c1ccccc1n2Cc1ccccc1,IC50,HCT-116,25.9 µM
same,IC50,HepG2 [1],5.7 µM
same,IC50 at 48 h,[2],> 100 µM
CCn1c2ccccc2c2cc(/C=C/c3nc4c(ccc5ccccc54)s3)ccc21,IC50,HCT-116,> 100 µM
same,IC50,HepG2 [1],58.7 µM
same,IC50 at 48 h,[2],> 100 µM
CCn1c2ccccc2c2cc(/C=C/c3oc4ccccc4[n+]3C)ccc21,IC50,HCT-116,46.7 µM
same,IC50,HepG2 [1],43.3 µM
same,IC50 at 48 h,[2],> 100 µM
CN(C)CCCn1c2ccccc2c2cc(/C=C/c3nc4ccccc4[se]3)ccc21,IC50,HCT-116,34.4 µM
same,IC50,HepG2 [1],> 100 µM
same,IC50 at 48 h,[2],> 100 µM
C(=C\c1nc2ccccc2[se]1)/c1ccc2c(c1)c1ccccc1n2Cc1ccccc1,IC50,HCT-116,> 100 µM
same,IC50,HepG2 [1],> 100 µM
same,IC50 at 48 h,[2],> 100 µM
CN(C)CCCn1c2ccccc2c2cc(/C=C/c3nc4ccccc4o3)ccc21,IC50,HCT-116,36.9 µM
same,IC50,HepG2 [1],21.6 µM
same,IC50 at 48 h,[2],> 100 µM
CN(C)CCCn1c2ccccc2c2cc(/C=C/c3sc4ccccc4[n+]3C)ccc21,IC50,HCT-116,14.7 µM
same,IC50,HepG2 [1],11.3 µM
same,IC50 at 48 h,[2],30.2 µM
CCn1c2ccccc2c2cc(/C=C/c3nc4ccccc4[se]3)ccc21,IC50,HCT-116,19.5 µM
same,IC50,HepG2 [1],13.4 µM
same,IC50 at 48 h,[2],> 100 µM
C[n+]1c(/C=C/c2ccc3c(c2)c2ccccc2n3Cc2ccccc2)[se]c2ccccc21.[I-],IC50,HCT-116,4.1 µM
same,Activity,[3],Non-Toxic
same,Activity,[4],Non-Toxic
same,Activity,[5],Toxic
same,inhibition,HepG2 [6],Active
same,inhibition,HepG2 [7],Active
same,Activity,HepG2 [8],Dose-Dependent Effect
same,inhibition,CA46,Dose-Dependent Effect
same,Activity,[9],Non-Toxic
same,inhibition in vivo at 15 mg/kg,HepG2 [10],65.8%
same,Kd,Quadruplex DNA [11],> 20 µM
same,Activity,HepG2 [12],Active
same,Kd,Quadruplex DNA [13],> 20 µM
same,IC50 at 48 h,[14],> 100 µM
same,Activity,[15],Non-Toxic
same,IC50,HepG2 [1],3.5 µM
same,Activity,[16],Non-Toxic
same,Activity,[17],Non-Toxic
same,Activity,HepG2 [18],Active
same,Activity,HepG2 [19],14.6%
same,Kd,Quadruplex DNA [20],0.9 µM
same,Activity,[21],Toxic
same,Kd,Quadruplex DNA [22],> 20 µM
same,Kd,Quadruplex DNA [23],> 20 µM
same,Kd,Quadruplex DNA [24],9.6 µM
same,Activity,[25],Non-Toxic
same,Tm,Quadruplex DNA [26],78.3 °C
same,Activity,HepG2 [27],1.7%
same,Activity,HepG2 [28],Active
same,IC50 at 48 h,[2],77.6 µM
same,Activity,[29],Non-Toxic
same,Activity,HepG2 [30],Active
same,Kd,Quadruplex DNA [31],17.9 µM
same,IC50,[32],9.8 µM
same,Activity,[33],Non-Toxic
